This note sets out measurements from patent US20050042219A1, “Engineered Fab' fragment anti-tumor necrosis factor alpha in combination with disease modifying anti-rheumatic drugs” (priority 2002, published 2005).

The test system of data set [1] is patients with active RA. Kind of data set: Celltech-002 study: single IV infusion, ACR responder rates. To be noted: for ACR20 responder rate / ACR50 responder rate: week 8. The data set is classed as in vivo, human. On the procedure: DMARD therapy was discontinued one month prior to study start; concomitant nonsteroidal anti-inflammatory drug (NSAID) and corticosteroid use was allowed provided the doses had been stabilized prior to entry into the study. […] Patients were assessed over an 8-week period.
Patients were assessed for an additional 8-week period.
(§1) The overall effect of CDP870 in reducing the signs and symptoms of RA was summarized using the following global index: • American College of Rheumatology (ACR) Core Set of Disease Activity Measures for Rheumatoid Arthritis Clinical Trials. A patient was considered an ACR 20/50/70 responder if 20/50/70% or greater improvement in number of swollen joints and tender joints and a 20/50/70% or greater improvement in three of the five remaining ACR core set measures (Patient's Assessment of Pain by VAS, Patient's Global Assessment of Disease Activity, Physician's Global Assessment of Disease Activity, Patient's Assessment of Physical Function by mHAQ, acute phase reactant value) was observed; and […]

Another data set addresses T1, TNFβ (lymphotoxin) (Homo sapiens, UniProt P01374).
T1 sequence (P01374 35-205): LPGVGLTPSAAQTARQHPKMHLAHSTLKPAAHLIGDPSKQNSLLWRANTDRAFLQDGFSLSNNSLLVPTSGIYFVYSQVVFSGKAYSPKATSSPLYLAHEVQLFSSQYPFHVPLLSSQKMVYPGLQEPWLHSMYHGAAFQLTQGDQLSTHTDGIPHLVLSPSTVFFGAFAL
Put plainly: Neutralization of TNFβ (lymphotoxin).

Data set [2] in a line: Half-life of the PEGylated Fab′ fragment. To be noted: PEG chains linked by a single maleimide group. The class given is in vivo.
For data set [3] the following is noted: human, in vivo.
The subject of data set [4] is patients with active RA. Put plainly: Celltech-004 study: SC every 4 weeks, ACR responder rates. The data set is classed as in vivo, human. To be noted: for ACR-20 responder rate / ACR-50 responder rate / ACR-70 responder rate: week 12. On the procedure:
Again, DMARD therapy was discontinued one month prior to study start; concomitant NSAID and corticosteroid use was allowed provided the doses had been stabilized prior to entry into the study.
The protocol was subsequently amended based on the results of the double-blind portion of Panel 1, to increase the dose to 400 mg SC every 4 weeks for an additional 108 weeks.
as §1

Data set [5] can be described thus: PHA-001 study: PK interaction study with methotrexate in RA patients. The settings on record: single dose of CDP-870 400 mg SC; oral MTX 5-17.5 mg/week.

Marks after values point to notes of the source that are not given here.

The t½ is the time in which the quantity being followed falls by half. A higher t½ goes with slow decline. In the case of “CDP-870: PEGylated anti-TNFα Fab′ fragment derived from antibody hTNF40, linked via a cysteine to a lysyl-maleimide linker bearing two methoxy PEG residues”, the ACR20 responder rate with patients with active RA [1] (1 mg/kg single IV) was 25 % of Patients; in the data set on patients with active RA [1] (5 mg/kg single IV), 75 % of Patients; in the data set with patients with active RA [1] (20 mg/kg single IV), 75 % of Patients. Moreover, the ACR50 responder rate is 13 % of Patients with patients with active RA [1] (1 mg/kg single IV), 13 % of Patients in the data set with patients with active RA [1] (5 mg/kg single IV) and 50 % of Patients in the data set with patients with active RA [1] (20 mg/kg single IV). For the same molecule, the “efficacy in reducing the signs and symptoms of RA” value in the data set with patients with active RA [1] (single IV dose of 1, 5 or 20 mg/kg, over 8 weeks) is “efficacious”. The “neutralization of TNFβ (lymphotoxin)” value in the data set with TNFβ (lymphotoxin) is “does not neutralize”. For the same molecule, the half-life result in data set [2] was “about 11 days”. The “mean plasma concentration at 55 days postdose” value in data set [3] came to 2740 ng/mL. The “CL/F (plasma clearance)” value in data set [3] (sc) was 0.021 L/h. Further, the t½ in data set [3] (sc) came out at 10.738 days. The “mean t½” value in data set [3] (sc, 400 mg) is given as 10.7 days. The “overall plasma exposure (AUC) over the 55-day monitoring period” value in data set [3] (sc, 400 mg) was “approximately 22000 hr*μg/mL”. In addition, the ACR-20 responder rate with patients with active RA [4] (50 mg SC every 4 weeks) is listed as 21 % of Patients; with patients with active RA [4] (100 mg SC every 4 weeks), 20 % of Patients; in the data set on patients with active RA [4] (200 mg SC every 4 weeks), 34 % of Patients; in the data set with patients with active RA [4] (400 mg SC every 4 weeks), 60* % of Patients; in the data set with patients with active RA [4] (600 mg SC every 4 weeks), 64* % of Patients; with patients with active RA [4] (800 mg SC every 4 weeks), 79* % of Patients. The ACR-50 responder rate with patients with active RA [4] (50 mg SC every 4 weeks) was 8 % of Patients; in the data set on patients with active RA [4] (100 mg SC every 4 weeks), 5 % of Patients; in the data set with patients with active RA [4] (200 mg SC every 4 weeks) it was 17* % of Patients; with patients with active RA [4] (400 mg SC every 4 weeks), 40* % of Patients; with patients with active RA [4] (600 mg SC every 4 weeks), 33* % of Patients; with patients with active RA [4] (800 mg SC every 4 weeks), 47* % of Patients. Besides, the ACR-70 responder rate in the data set on patients with active RA [4] (50 mg SC every 4 weeks) is 5 % of Patients; in the data set on patients with active RA [4] (100 mg SC every 4 weeks) it was 3 % of Patients; in the data set with patients with active RA [4] (200 mg SC every 4 weeks) it was 7 % of Patients; with patients with active RA [4] (400 mg SC every 4 weeks), 29* % of Patients; with patients with active RA [4] (600 mg SC every 4 weeks), 21* % of Patients; in the data set with patients with active RA [4] (800 mg SC every 4 weeks), 21* % of Patients. Further, the “efficacy in treating the signs and symptoms of RA” value in the data set with patients with active RA [4] (doses ≧400 mg SC every 4 weeks) is “efficacious”.
On to `CN(Cc1cnc2nc(N)nc(N)c2n1)c1ccc(C(=O)N[C@@H](CCC(=O)O)C(=O)O)cc1` [MTX, methotrexate], for which the “mean dose-adjusted MTX plasma concentrations, MTX alone versus coadministration with CDP-870” value in data set [5] is reported as “not significantly different”.
